Where “and” joins values, the source holds several entries; their conditions need not be identical. Identical values can stand only once.
What was measured:
Plasmodium berghei [1] = test: Antimalarial effect against trophozoite-induced Plasmodium berghei in mice (Mus musculus) at 80 mg/kg subcutaneous dose; assay type: functional
Plasmodium berghei [2] = test: Antimalarial effect against trophozoite-induced Plasmodium berghei in mice (Mus musculus) after 20 mg/kg subcutaneous dose; assay type: functional
Plasmodium berghei [3] = test: (§1) Antimalarial effect against trophozoite-induced Plasmodium berghei in mice (Mus musculus) at 640 mg/kg subcutaneous dose; assay type: functional
Plasmodium berghei [4] = test: Antimalarial effect against trophozoite-induced Plasmodium berghei in mice (Mus musculus) at 320 mg/kg subcutaneous dose; assay type: functional
Plasmodium berghei [5] = test: Antimalarial effect against trophozoite-induced Plasmodium berghei in mice (Mus musculus) at 160 mg/kg subcutaneous dose; assay type: functional
Mus musculus [6] = test: Number of toxic deaths at a dose of 640 mg/kg; assay type: toxicity, organism-based; parameters: dose 640 mg/kg; conditions: in vivo
Plasmodium berghei [7] = test: as §1; assay type: functional; remark: listed apart in the source
Plasmodium berghei [8] = test: Antimalarial effect against trophozoite-induced Plasmodium berghei in mice (Mus musculus) after 40 mg/kg subcutaneous dose; assay type: functional
Mus musculus [9] = test: Number of mice cured at a subcutaneous dose of 320 mg/kg.; assay type: functional
Mus musculus [10] = test: Number of mice cured at a dose of 640 mg/kg sc; assay type: functional; conditions: route subcutaneous
Mus musculus [11] = test: Number of mice cured at a subcutaneous dose of 160 mg/kg.; assay type: functional
Plasmodium berghei [12] = test: Antimalarial activity against trophozoite-induced Plasmodium berghei in mice (Mus musculus) at 160 mg/kg subcutaneous dose; assay type: functional
Plasmodium berghei [13] = test: Antimalarial activity against trophozoite-induced Plasmodium berghei in mice (Mus musculus); assay type: functional

Row | SMILES | MST (Plasmodium berghei [1]) [days] | MST (Plasmodium berghei [2]) [days] | MST (Plasmodium berghei [4]) [days] | MST (Plasmodium berghei [5]; 160 mg/kg) | MST (Plasmodium berghei [8]) [days] | MST (Plasmodium berghei [5]) [days] | MST (Plasmodium berghei [3]) [days] | also measured
1 | CCN1CCCC(Nc2nc(Nc3ccc(Cl)c(Cl)c3)c3ccccc3n2)C1 (stereo not drawn) | 0.9 | 0.9 | 2.9 | 0.9 days and 2.2 days |  |  |  | MST (Plasmodium berghei [3]; 640 mg/kg): 9.5 days and 10.6 days
2 | c1ccc2c(NCCCN3CCCC3)nc(Nc3nccs3)nc2c1 |  |  |  |  | 0.3 | 0.3 |  | No. of toxic deaths (Mus musculus [6]): 3; MST (Plasmodium berghei [7]): 0.9 days
3 | Clc1cc(Cl)cc(Nc2nc(NCCCN3CCCC3)nc3ccccc23)c1 |  |  |  |  | 0.4 | 0.8 | 1.2 | 
4 | CCN1CCCC(Nc2nc(Nc3ccc(C(F)(F)F)cc3)c3ccccc3n2)C1 (stereo not drawn) | -0.1 |  | 0.9 | 0.2 days and 0.3 days |  |  |  | MST (Plasmodium berghei [3]; 640 mg/kg): 3.4 days and 3.1 days
5 | CCN(CC)CCCC(C)Nc1nc(Nc2ccc(C(F)(F)F)cc2)c2ccccc2n1 (stereo not drawn) |  |  |  |  | -0.6 | 0 | 1.6 | 
6 | CCN(CC)CCCC(C)Nc1nc(Nc2ccc(Cl)c(Cl)c2)c2ccccc2n1 (stereo not drawn) | 0.3 | 0.1 | 1.3 |  |  |  |  | MST (Plasmodium berghei [3]; 640 mg/kg): 4.7 days and 5.8 days; MST (Plasmodium berghei [8]; 40 mg/kg): 0.3 days and 0.4 days
7 | OC1CCCN(CCCNc2nc(Nc3cccc4nsnc34)nc3ccccc23)C1 (stereo not drawn) |  |  |  |  | 0 | 0 | 0 | 
8 | Clc1cc(Cl)cc(Nc2nc(NCCCN3CCCCC3)nc3ccccc23)c1 |  |  |  |  | 0.2 | 0.2 | 1.6 | 
9 | CN1CCCC1CCNc1nc(Nc2ccc(C(F)(F)F)cc2)c2ccccc2n1 (stereo not drawn) | 0.5 | 0.3 |  | 1.5 days and 1.7 days | 0.3 |  | 7.7 | MST (Plasmodium berghei [4]; 320 mg/kg): 4.1 days and 4.3 days
10 | CN(C)C1CCC(Nc2nc(Nc3ccc(C(F)(F)F)cc3)c3ccccc3n2)CC1 (stereo not drawn) |  |  |  |  | 1.1 | 0.7 | 0.7 | 
11 | CCN(CC)C1CCC(Nc2nc(Nc3ccc(C(F)(F)F)cc3)c3ccccc3n2)CC1 (stereo not drawn) |  |  |  | 9.7 days and 9.5 days | 0.5 |  |  | No. of survivals (Mus musculus [9]): 5; MST (Plasmodium berghei [1]; 80 mg/kg): 0.7 days and 0.5 days; MST (Plasmodium berghei [2]; 20 mg/kg): 0.5 days and 0.3 days; No. of survivals (Mus musculus [10]; 640 mg/kg): 3 and 2
12 | CN(C)C1CCC(Nc2nc(Nc3cccc(Br)c3)c3ccccc3n2)CC1 (stereo not drawn) |  |  |  |  | -0.1 | 0.7 | 0.7 | 
13 | CCN(CC)CCCC(C)Nc1nc(Nc2cc(Cl)cc(Cl)c2)c2ccccc2n1 (stereo not drawn) | -0.1 | 0.1 | 3.1 | 1.1 days and 1.2 days |  |  |  | MST (Plasmodium berghei [3]; 640 mg/kg): 4.9 days and 4.4 days
14 | CCN1CCCC(Nc2nc(Nc3cc(Cl)cc(Cl)c3)c3ccccc3n2)C1 (stereo not drawn) | 0.2 | 0.4 | 2.4 | 0.4 days and 0.3 days |  |  |  | MST (Plasmodium berghei [3]; 640 mg/kg): 4.4 days and 6.3 days; MST (Plasmodium berghei [8]; 40 mg/kg): 0.2 days and 0.1 days
15 | CCN(CC)C1CCC(Nc2nc(Nc3ccc(Cl)c(Cl)c3)c3ccccc3n2)CC1 (stereo not drawn) |  | 0.3 |  |  | 0.5 |  |  | No. of survivals (Mus musculus [11]; 160 mg/kg): 1 and 2; No. of survivals (Mus musculus [9]): 3; MST (Plasmodium berghei [1]; 80 mg/kg): 2.9 days and 3.1 days; MST (Plasmodium berghei [12]; 160 mg/kg): 17.2 days and 15.6 days; MST (Plasmodium berghei [4]; 320 mg/kg): 14.4 days and 14.9 days; No. of survivals (Mus musculus [10]): 5
16 | CCN(CC)CCCNc1nc(Nc2ccc(C(F)(F)F)cc2)c2ccccc2n1 | 0.8 | 0 | 9.2 | 0.6 days and 0.3 days |  |  |  | MST (Plasmodium berghei [3]; 640 mg/kg): 10.1 days and 7.5 days
17 | CCN(CC)CCNc1nc(Nc2cc(Cl)c(Cl)cc2Cl)nc2ccccc12 |  |  |  |  | 0.4 | 0.4 | 1.2 | 

Row | SMILES | MST (Plasmodium berghei [1]) [days] | MST (Plasmodium berghei [2]) [days] | MST (Plasmodium berghei [4]) [days] | MST (Plasmodium berghei [5]; 160 mg/kg) | MST (Plasmodium berghei [8]) [days] | MST (Plasmodium berghei [5]) [days] | MST (Plasmodium berghei [3]) [days] | also measured
18 | CCN1CCC(CNc2nc(Nc3cc(Cl)cc(Cl)c3)c3ccccc3n2)CC1 |  |  |  | 5.7 days and 5.9 days | 0.5 |  |  | No. of survivals (Mus musculus [9]; 320 mg/kg): 3 and 2; MST (Plasmodium berghei [1]; 80 mg/kg): 2.5 days and 2.7 days; MST (Plasmodium berghei [2]; 20 mg/kg): 0.5 days and 0.3 days; No. of survivals (Mus musculus [10]; 640 mg/kg): 3 and 2
19 | CCN(CC)C1CCC(Nc2nc(Nc3cc(Cl)cc(Cl)c3)c3ccccc3n2)CC1 (stereo not drawn) | 0.5 | 0.3 |  | 0.7 days and 0.5 days |  |  |  | MST (Plasmodium berghei [4]; 320 mg/kg): 7.9 day and 8.1 MST; MST (Plasmodium berghei [8]; 40 mg/kg): 0.5 days and 0.3 days; No. of survivals (Mus musculus [10]): 5
20 | CCN(CC)CCNc1nc(Nc2ccc(C(F)(F)F)cc2)c2ccccc2n1 | -0.2 | 0.2 | 2.8 |  |  |  |  | MST (Plasmodium berghei [3]; 640 mg/kg): 5.3 days and 5.5 days
21 | CCN(CC)C1CCC(Nc2nc(Nc3ccc(SC)cc3)c3ccccc3n2)CC1 (stereo not drawn) |  |  | 11.7 |  | 0.7 | 5.7 |  | MST (Plasmodium berghei [1]; 80 mg/kg): 1.1 days and 1.3 days; MST (Plasmodium berghei [2]; 20 mg/kg): 0.5 days and 0.7 days
22 | FC(F)(F)c1ccc(Nc2nc(NCCCN3CCCCC3)nc3ccccc23)cc1 |  |  |  |  | -0.2 | -0.2 | 2.4 | 
23 | CCN1CCCC(Nc2nc(Nc3ccc(Cl)c(Cl)c3)nc3ccc([N+](=O)[O-])cc23)C1 (stereo not drawn) |  |  |  |  |  |  |  | SD90 (Plasmodium berghei [13]): 34 mg/kg/day
24 | CCN(CC)C1CCC(Nc2nc(Nc3cccc(Br)c3)c3ccccc3n2)CC1 (stereo not drawn) |  |  |  | 10.3 days and 10.1 days |  |  |  | MST (Plasmodium berghei [1]; 80 mg/kg): 2.5 days and 2.7 days; MST (Plasmodium berghei [2]; 20 mg/kg): 0.3 days and 0.5 days; MST (Plasmodium berghei [4]; 320 mg/kg): 12.9 days and 12.7 days; MST (Plasmodium berghei [8]; 40 mg/kg): 0.3 days and 0.5 days; No. of survivals (Mus musculus [10]; 640 mg/kg): 3 and 2
25 | CCN1CCC(CNc2nc(Nc3ccc(Cl)c(Cl)c3)c3ccccc3n2)CC1 |  |  |  |  | 2.1 |  |  | No. of survivals (Mus musculus [11]): 1; No. of survivals (Mus musculus [9]): 5; MST (Plasmodium berghei [1]; 80 mg/kg): 6.7 days and 6.9 days; MST (Plasmodium berghei [12]): 6.94 days; MST (Plasmodium berghei [2]; 20 mg/kg): 0.5 days and 0.7 days; No. of survivals (Mus musculus [10]): 5
26 | CCN(CC)CCCNc1nc(Nc2ccc(Cl)c(Cl)c2)c2ccccc2n1 | 2.8 | 0 | 8.4 | 4.6 days and 5.2 days |  |  |  | MST (Plasmodium berghei [7]; 640 mg/kg): 9.8 days and 10.5 days; No. of survivals (Mus musculus [10]): 1
27 | CCN(CC)CCCNc1nc(Nc2cc(Cl)cc(Cl)c2)c2ccccc2n1 | 1.4 | 0.2 | 5 | 3 days and 2.7 days |  |  |  | MST (Plasmodium berghei [7]; 640 mg/kg): 14.5 days and 15.7 days; No. of survivals (Mus musculus [10]): 2
28 | CCN1CCCC(Nc2nc(Nc3ccc(Cl)c(Cl)c3)nc3c(Cl)cc(Cl)cc23)C1 (stereo not drawn) |  | 0.3 |  |  | 0.3 | 0.5 |  | 
29 | CCN(CC)CCCC(C)Nc1nc(Nc2cc(OC)c(OC)c(OC)c2)c2ccccc2n1 (stereo not drawn) | -0.3 | 0.3 | 0.5 | 0.3 days and 0.6 days |  |  |  | MST (Plasmodium berghei [3]; 640 mg/kg): 3.5 days and 5 days
30 | CN(C)C1CCC(Nc2nc(Nc3cc(Cl)cc(Cl)c3)c3ccccc3n2)CC1 (stereo not drawn) | 1.2 | -0.2 |  |  | 0 | 2.6 |  | No. of survivals (Mus musculus [10]): 5
31 | Clc1ccc(Nc2nc(NCCCN3CCCCC3)nc3ccccc23)cc1Cl | -0.4 | -0.2 | 1.6 |  |  |  |  | MST (Plasmodium berghei [3]; 640 mg/kg): 3 days and 4.1 days
32 | CCN(CC)CCCC(C)Nc1nc(Nc2ccc(O)c(CN(CC)CC)c2)c2ccccc2n1 (stereo not drawn) | 1.4 | 0 | 7.4 | 3.8 days and 1.6 days |  |  | 5.6 | MST (Plasmodium berghei [7]): 3.1 days; MST (Plasmodium berghei [8]; 40 mg/kg): 0.6 days and 0.2 days; No. of survivals (Mus musculus [10]): 3
33 | CN(C)c1ccc(Nc2nc(NC3CCC(N(C)C)CC3)nc3ccccc23)cc1 (stereo not drawn) |  |  |  |  | -0.2 | 0.6 | 1.1 | 

Reference: ChEMBL document CHEMBL1121775, “Synthesis and antimalarial effects of N2-aryl-N4-[(dialkylamino)alkyl]- and N4-aryl-N2-[(dialkylamino)alkyl]-2,4-quinazolinediamines” (J Med Chem, 1981)
